In patent publication US20230320978A1, “COMPOSITIONS AND METHODS FOR LOWERING INTRACRANIAL PRESSURE” (THE REGENTS OF THE UNIVERSITY OF COLORADO, A BODY CORPORATE, priority 2020, published 2023):

How the values were obtained:
Type in all cases: in vivo
C57/BL6 mice [1] = assay: Tracer recovery from nasal mucosa after single intranasal dose and ventricular injection of fluorescent tracer; settings: single intranasal dose; for increase in tracer recovery from the nasal mucosa relative to control animals: p<0.001 compared to control; for increase in nasal tracer recovery relative to vehicle-treated controls: commercial concentrations, p<0.05 vs control; for nasal tracer recovery at higher doses: higher doses than the commercial concentration (5x or 10x)
Description: In another exemplary method, compositions including prostaglandin F2-alpha analogues were used to analyze increased lymphatic channel contractility in the nasal mucosa of experimental animals. In this example, prostaglandin F2-alpha analogues latanoprost, bimatoprost, travoprost, latanoprostene bunod, and tafluprost were administered via an intranasal vehicle into the nasal mucosa of mice.
In this example, a total of 67 animals were studied using a scaled dosing technique in which each prostaglandin analog was evaluated at its commercial ophthalmic concentration as well as one or two more concentrated forms (either 5× or 10×).
Commercially available prostaglandin F2-alpha analogues used in the treatment of glaucoma were selected for evaluation; these included latanoprost, bimatoprost, travoprost, latanoprostene bunod, and tafluprost. Initial experiments were conducted with topical ophthalmic preparations, and pharmaceutical grade drug also was obtained and placed into solution for use in a more concentrated form. Agents were solubilized in DMSO and diluted in normal saline.
For single inhalation trails described herein, awake adult male and female C57/BL6 mice (approx. 6 weeks of age) were administered intranasal vehicle (10% DMSO) or drug solution (total 8 μl) by placing droplets (1-2 μl) of liquid at the nares using a micropipette and allowing the animal to inhale the liquid spontaneously. Anesthesia with ketamine and xylazine was administered via intraperitoneal injection, and anesthetized animals were placed within a stereotaxic apparatus. For multiday studies, intranasal drug administration was performed on awake animals daily using the same procedure described above. Approximately 6 hours after the third daily dose was given, animals were anesthetized and placed within a stereotaxic apparatus. A midline incision was created along the scalp, and the right lateral ventricle was targeted with placement of a 26-gauge needle to a depth of 3 mm into the brain at a position 1 mm lateral and 0.3 mm anterior to bregma. A 5 μl intraventricular injection of fluorescent tracer (AlexaFluor^647-ovalbumin solution) was delivered at a rate of 100 nl/seconds using a Hamilton syringe and an electric pump. Animals remained anesthetized for the 1 hour recovery period post injection and were then euthanized with a lethal overdose of ketamine followed by secondary cervical dislocation. Nasal turbinates were harvested, and tissue extracts were analyzed by ELISA.
The experimental technique was validated by evaluating recovery of fluorescent tracer from nasal mucosa after ventricular injection in the absence of intranasal treatment. Time points for tissue harvest were selected based on increased recovery at 60 minutes versus 30 minutes, with later harvest raising concern for potential contamination of specimens by hematogenous CSF absorption and recirculation of tracer throughout the tissues via arterial flow.
Statistical analyses were conducted with Stata using either two-tailed Student's t-tests or ANOVA RM with Dunnet's post hoc analysis.

C57/BL6 mice [2] = assay: Tracer recovery from nasal turbinates after intranasal dosing once a day for three consecutive days; settings: 0.1, 0.5 or 1 mg/ml once a day for 3 days
Description: In another example, an additional 14 animals were administered inhaled doses of latanoprost (either 0.1, 0.5, or 1 mg/ml) once a day for three (3) consecutive days. Nasal turbinates were isolated 1 hour after ventricular tracer injection and between 7 and 9 hours after the final latanoprost dose was given intranasally according to the exemplary methods described herein.
For single inhalation trails described herein, awake adult male and female C57/BL6 mice (approx. 6 weeks of age) were administered intranasal vehicle (10% DMSO) or drug solution (total 8 μl) by placing droplets (1-2 μl) of liquid at the nares using a micropipette and allowing the animal to inhale the liquid spontaneously. Anesthesia with ketamine and xylazine was administered via intraperitoneal injection, and anesthetized animals were placed within a stereotaxic apparatus. For multiday studies, intranasal drug administration was performed on awake animals daily using the same procedure described above. Approximately 6 hours after the third daily dose was given, animals were anesthetized and placed within a stereotaxic apparatus. […] Nasal turbinates were harvested, and tissue extracts were analyzed by ELISA. […]

C57/BL6 mice [3] = assay: Tracer recovery from nasal mucosa after single intranasal dose and ventricular injection of fluorescent tracer; settings: single inhalation, lower doses, p<0.05 relative to controls

SMILES	increase in nasal tracer recovery relative to vehicle-treated controls (C57/BL6 mice [1])	nasal tracer recovery at higher doses (C57/BL6 mice [1])	tracer recovery relative to controls, fluorometric analysis of nasal turbinate homogenates (words, FIG. 3) (C57/BL6 mice [3])	effect on nasal tracer recovery at any tested dose (C57/BL6 mice [1])	further results
CC(C)OC(=O)CCC/C=C\C[C@@H]1[C@@H](CC[C@@H](O)CCc2ccccc2)[C@H](O)C[C@@H]1O [latanoprost, isopropyl (Z)-7-[(1R,2R,3R,5S)-3,5-dihydroxy-2-[(3R)3-hydroxy-5-phenylpentyl]-cyclopentyl] hept-5-enoate]	–	–	–	–	increase in tracer recovery from the nasal mucosa relative to control animals (C57/BL6 mice [1]; 0.5 mg/ml solution, after 60 minutes): approximately 10 fold; increase in tracer recovery from the nasal mucosa relative to control animals (C57/BL6 mice [1]; 1 mg/ml solution, after 60 minutes): approximately 10 fold; dose dependence of the increase in tracer recovery from the nasal mucosa (C57/BL6 mice [1]; 0.1 to 1 mg/ml, after 60 minutes): semi dose-dependent increase; tracer recovery compared with all tested prostaglandin analogs and 0.1 mg/ml latanoprost (C57/BL6 mice [1]; concentrated 0.5 mg/ml and 1 mg/ml): significant increase in tracer recovery over all tested prostaglandin analogs and 0.1 mg/ml latanoprost; increased tracer recovery vs control (C57/BL6 mice [1]; standard ophthalmic dose 0.1 mg/ml, p<0.01 vs control): approximately 6 fold; difference in tracer recovery amongst the 3 doses (C57/BL6 mice [2]): no statistically significant difference; increase in tracer recovery relative to controls (C57/BL6 mice [2]; turbinates isolated 1 hour after tracer injection, 7 to 9 hours after final dose, p<0.05): ~3 fold
CC(C)OC(=O)CCC/C=C\C[C@@H]1[C@@H](/C=C/C(F)(F)COc2ccccc2)[C@H](O)C[C@@H]1O [tafluprost]	approximately 1.5 fold	did not appear to improve at higher doses	Some enhanced tracer recovery relative to controls	–	–
O=C(CCC/C=C\C[C@@H]1[C@@H](CC[C@@H](O)CCc2ccccc2)[C@H](O)C[C@@H]1O)OCCCCO[N+](=O)[O-] [latanoprostene bunod]	–	–	–	Neither travoprost nor latanoprostene bunod demonstrated a measurable effect	–
CC(C)OC(=O)CCC/C=C\C[C@@H]1[C@@H](/C=C/[C@@H](O)COc2cccc(C(F)(F)F)c2)[C@H](O)C[C@@H]1O [travoprost]	–	–	–	Neither travoprost nor latanoprostene bunod demonstrated a measurable effect	–
CCNC(=O)CCC/C=C\C[C@@H]1[C@@H](/C=C/[C@@H](O)CCc2ccccc2)[C@H](O)C[C@@H]1O [bimatoprost]	approximately 1.5 fold	did not appear to improve at higher doses	Some enhanced tracer recovery relative to controls	–	–
